Earlier results as cited in patent US8044033B2, “Fluorocytidine derivatives and COX-2 inhibitors for the treatment of cancer” (The Board of Regents of the University of Texas System, priority 2006, dated 2011).
Like-named read-outs stand apart in the source and are kept apart here.

Assays:
[1] = tested on: metastatic colorectal cancer
[2] = First-line therapy, no radiation, cross-study comparison
[3] = first-line treatment of metastatic colorectal cancer

## CCCCCOC(=O)Nc1nc(=O)n([C@@H]2O[C@H](C)[C@@H](O)[C@H]2O)cc1F [Capecitabine, capecitabine]
[1]; [2]
  Complete response (%): 1%
  Median OS (months): 12.4-13.2 months
[1]; Second-line therapy, no radiation, cross-study comparison
  Median OS (months): 12.7 months
[1]; [3]
  overall survival: 12 months
  response rate: 25%
[1]; monotherapy
  time to tumor progression in half of the patients: 2-4 months
1250 mg/m2/day bid for two weeks every 3 weeks
  incidence of hand-foot syndrome (HFS): 54%
Earlier study, capecitabine dose 1000 mg/m2/d bid (Lin et al., 2002)
  incidence of grade 2/3 HFS: 34.2%
